62 compounds from a melting point compilation (Tetko et al.; mined from patent text by program, amines drawn as free bases though some values may be those of a salt) can be followed below.

SMILES strings stand for the structures.

In general, melting point refers to the temperature, or range, at which the solid turns liquid.

`Cc1cccc(CCC(O)c2ccccc2)c1NC(=O)CC1c2ccccc2Oc2ccccc21` (configuration not stated) returned a melting point of 193 to 194 °C.
`O=C(c1ccccc1)C(c1cccc2ccccc12)P(=O)(O)O` (configuration not stated) had a melting point of 184 to 187 °C.
On to `N#CCCNC(=O)c1cccc(-c2cccc3oc(Cc4ccc(F)c(Cl)c4)cc23)c1`, for which the melting point lay in the range of 130 to 131 °C.
Turning to `O=C(O)C(=O)Nc1ccc2c(=O)n3c(nc2c1)C(=Cc1ccccc1)CC3`, the melting point lay within 198 to 200 °C.
In the case of `CCC(C)(C)NC(=O)C(=O)C(C)(C)C` it was 36 °C; in that of `CC(C)(C)OC(=O)Nc1ccccc1NC(=O)c1ccc(C(=O)Nc2cccc(Nc3nc(-c4cccnc4)cs3)c2)s1`, 198 °C.
In the case of `OCC1OC(n2c(Br)nc3cc(Cl)c(Cl)cc32)C(O)C1O` (configuration not stated), the melting point is 169 °C.
`CN(C)C(=O)OCCn1nc(-c2cc(C(C)(C)C)c(O)c(C(C)(C)C)c2)c2cccnc21` came in with a melting point of 99 to 101 °C.
In the case of `COc1cc(C=Cc2nc3c([nH]2)c(=O)n(C)c(=O)n3C)cc(OC)c1` it was above 320 °C; in that of `CC(C)Cc1ccc(C2(C)Oc3ccc(C(=O)c4c[nH]c5ccccc45)cc3O2)cc1` (single isomer, unassigned; (-)), 155 to 158 °C.
For the compound `Cn1nnnc1SCC(CS(=O)(=O)c1ccc(-c2ccc(Cl)cc2)cc1)C(=O)O` (configuration not stated), the melting point lay in the range of 98 to 100 °C.
Compound `CN1C(=O)CCC2(C)C3CCC4(C)C(OCC(=O)O)CCC4C3CCC12` (configuration not stated) yielded a melting point of 180 to 184 °C.
In the case of `CC1(C)CN(CC2Cc3ccccc3O2)c2nc(-c3ccncc3)cc(=O)n2C1` (racemic) it was 147 to 149 °C.
In the case of `O=[N+]([O-])c1cccc2c1nnn2SC(Cl)(Cl)Cl` it was 136 to 138 °C.
The same measure for `CC(C)OC(=O)n1ncc2cc(C(O)(c3cn(C)c4ccccc34)C(F)(F)F)ccc21` (configuration not stated): 105 to 106 °C; for `CC1(C)Cc2cc(C(=O)O)sc2C1`: 170 to 172 °C.
The compound `CC(C)(C)CC(=O)c1c(-c2ccc3cc(O)ccc3c2)oc2ccccc12` yielded a melting point of 205 to 207 °C.
Regarding `CC(C)(C)ONc1ccccc1`, the melting point is 67 to 69 °C.
For `NC(=O)c1ccc2cc(Nc3ccc(O)cc3)ccc2c1`, the melting point was 260 °C.
In the case of `Cc1nc2cc(C(=O)Nc3ccccc3)ccc2o1` it was 138 to 139 °C; in that of `CCC(C)(C)c1ccc(OCCCC(=O)Nc2ccc(Cl)c(NC(=O)CC(=O)C(C)(C)Sc3ccccc3)c2)c(C(C)(C)CC)c1`, 144 to 145 °C; in that of `Nc1ccnc(Cl)c1Cl`, 146 to 148 °C.
In the case of `Cc1cc(=O)oc2c1c(C)nn2CCO` it was 152 to 153 °C; in that of `Nc1ncc2c(n1)CCC(CNC(=O)[C@@H]1CCCN1C(=O)[C@@H](CC1CCCCC1)NS(=O)(=O)Cc1ccccc1)C2` (some centres not stated), 118 to 121 °C; in that of `O=C1C2=C(CCCC2)C(=O)N1c1cc(OC2CCCCC2)c(Cl)cc1F`, 102 to 103 °C.
In turn, `O=C(C=Cc1ccc2c(c1)OCO2)C1C(=O)CC(c2ccccc2)CC1=O` (configuration not stated) gave a melting point of 157 to 158 °C.
In the case of `COc1cc(CN/C=C2\C(=O)NC(=O)c3ccc(Br)cc32)ccc1O` it was 260 to 261 °C; in that of `CC(C)c1cccc(COCCCn2ccnc2)c1NC(=O)CC1c2ccccc2Oc2ccccc21`, 131 to 132 °C.
The same measure for `Cc1ccc(CCc2ccccc2)c(OCC[C@@H]2C[C@@H](O)CN2C)c1`: 97 to 100 °C; for `Nc1ccc2c3c(cccc13)C(=O)N([C@@H]1CN3CCC1CC3)C2=O`: 305 to 308 °C; for `COc1cc(O)c2c(c1)OC(C(C)(C)C=C1N=C(c3ccccc3)OC1=O)CC2=O` (configuration not stated): 147 to 149 °C.
In the case of `COC[C@H]1CN(C2=Nc3ccccc3Nc3sc(C)cc32)CCN1C` it was 76 to 80 °C; in that of `Cc1cc([N+](=O)[O-])sc1C(=O)c1sc(Nc2ccc(S(N)(=O)=O)cc2)nc1N`, 268 to 269 °C; in that of `Cc1ccc(-c2ccc3c(c2)C=C(C(=O)N[C@H]2CC[C@H](CN(C)C4CCOCC4)CC2)CCO3)cc1`, 144 to 146 °C.
The compound `Cc1sc(-c2ccco2)nc1O` returned a melting point of 173 to 174 °C.
In the case of `CC(C)(Br)C(=O)ON1C(=O)CCC1=O` it was 72 to 74 °C.
The same measure for `O=C1c2ccccc2C(=O)N1CCc1cccc(F)c1`: 122 to 125 °C; for `C=CCOC(=O)c1c(C)nc2c(cnn2CCC(C)CC)c1N` (configuration not stated): 85 to 86 °C.
`CCC(Nc1ccc(OC)nc1)n1nnc2ccccc21` (configuration not stated) yielded a melting point of 109 to 110 °C.
In the case of `Cc1ccc(C2CN(c3cc4c(cc3F)ncc3c4c(=O)c(C(=O)O)cn3C)CCN2)cc1C` (configuration not stated) it was 325 °C.
With `CCOC(=O)CCc1cn(-c2ccccc2)nc1O`, the melting point fell in the range of 116 to 118 °C.
The compound `CCCCn1c(=S)sc2c(=N)n(NC(=O)c3ccco3)cnc21` had a melting point of 210 °C.
The same measure for `COc1cc(C)nc2nc(S(=O)(=O)Nc3c(Cl)ccc(C)c3Cl)nn12`: 239 to 242 °C; for `CCOc1ccc(C2=NN(C3CCN(C(=O)CCl)CC3)C(=O)[C@@H]3CC=CC[C@H]23)cc1OCC`: 135 to 136 °C.
The same measure for `CCOP(=O)(Cc1ccc(C(=O)Nc2ccc(Br)cc2C#N)cc1)OCC`: 165 to 166 °C; for `CN(CCOc1ccc(C=C2SC(=O)NC2=O)cc1)c1ncccn1`: 189 to 190 °C.
The same measure for `Cn1cc(-c2cc3cccnc3[nH]2)c2cc(C(=O)NCCC(N)=O)ccc21`: 286 to 288 °C.
Compound `CCCCC[C@H]1CC[C@H](c2nc(Cl)c(OC)c(Cl)n2)CC1` showed a melting point of 29.5 to 30.4 °C.
The same measure for `O=C(Nc1ccc(Cl)cc1)Oc1ccc2c(c1)NCCC2`: 118 °C; for `N#CC=Cc1ccc(C(=O)O)cc1`: 281 °C.
The same measure for `CCOC(=O)C(CC(=O)c1cc(F)ccc1OC)(NC(C)=O)C(=O)OCC`: 123 to 124 °C; for `Oc1ccc(Nc2nc(NCc3ccco3)nc(Oc3ccc(O)cc3)n2)cc1`: 80 to 83 °C; for `CCC(C)C1CCCCC1NC(=O)c1sc(C)nc1C(F)(F)F` (configuration not stated): 112 to 113 °C.
As for `Cc1nc(N(C)C)ccc1N1CCCn2c1nc1c(Cl)ccc(C(OC(F)F)C(F)(F)F)c12` (configuration not stated), the melting point fell in the range of 233 to 235 °C.
In the case of `O=C(O)c1cc(NCc2ccc(C(F)(F)F)cc2)ccc1O`, the melting point was above 188 °C.
In the case of `Cc1c(CC(=O)O)cc2ccc(F)cc2c1Cc1ccc(S(=O)(=O)C(F)(F)F)cc1` it was 200 to 201 °C; in that of `CCOC(=O)C(C)(C)c1nsc2ccc([N+](=O)[O-])cc12`, 75 to 77 °C.
In the case of `CC(=O)OC1CSC(Oc2ccc(-c3cncc(C)c3)nc2)C(OC(C)=O)C1OC(C)=O` (configuration not stated) it was 189 to 190 °C; in that of `COC1(OC)CCC(O)(c2ccc(C)cc2)CC1`, 93 to 97 °C; in that of `CCn1cc(C(=O)O)c(=O)c2cc(Cl)c(N3CCN(c4ccccc4)CC3)cc21`, 234 to 235 °C.
The same measure for `CN(Cc1nnc2n1-c1ccc(Cl)cc1C(c1ccccc1)=NC2)CC1CC1`: 171 to 176 °C.
`O=c1cc(N2CCOCC2)[nH]c2c(-c3ccc([N+](=O)[O-])c4c3oc3ccccc34)cccc12`: the melting point stood at 247 °C.
